In US20210261857A1, “PARTICLE COMPRISING AT LEAST ONE FERRIMAGNETIC OR FERROMAGNETIC IRON OXIDE NANOPARTICLE ASSOCIATED WITH AT LEAST ONE COMPOUND FOR MEDICAL OR COSMETIC USE” (NANOBACTERIE, priority 2015, published 2021):

Assays:
Type in all cases: physicochemical
[1] = Luminescence of heated DiI and BNF-DiI suspensions and supernate; conditions: excited at 530 nm
Description: A suspension of DiI of concentration 5.4 μM and pH 7 is heated at various temperatures lying between 20 and 90° C. for 30 minutes using a dry heating bath. […] When a suspension containing BNF-DiI mixed in water at a concentration of 80 μg/mL in iron oxide is heated at temperatures lying between 20 and 90° C. using a dry heating bath, the behavior is different from that observed with DiI alone.
In order to determine if the luminescence variation of the BNF-DiI is due to the dissociation of DiI from the BNF, the maximum intensity of luminescence of the supernate of BNF-DiI and DiI alone, excited at 530 nm, were measured for suspensions containing BNF-DiI or DiI alone heated at different temperatures between 20 and 90° C. for a period of 0 to 30 minutes.

[2] = Luminescence of heated rhodamine B solution and MCR400 suspension (temperature probe); conditions: temperature increased from 20° C. to 80° C., 5 μM, pH 7, heated 30 minutes, excited at 405 nm
Description: A solution of rhodamine B of concentration 5 μM and pH 7 contained in a volume of 800 μL is excited at 405 nm and heated at different temperatures for 30 minutes using a dry heating bath. When the temperature of this solution increases from 20° C. to 80° C., the wavelength corresponding to the maximum luminescence of rhodamine B remains relatively unchanged while the maximum luminescence intensity of rhodamine B decreases strongly by 73% in agreement with previously published results (Journal of Luminescence, Vol. 27, p. 455 (1982)). A suspension of MCR400 at a concentration of 250 μg/mL in iron oxide and pH 7 contained in a volume of 800 μl is excited at 405 nm and heated at different temperatures for 30 minutes using a dry hot-water heating bath. MCR400 excited at 405 nm produce maximum luminescence intensity at 569 nm. The behavior of the MCR400 is different from that of rhodamine B. Indeed, between 20° C. and 80° C., the maximum of the luminescence peak is observed at 569 nm and the luminescence intensity of the MCR400 increases sharply by 66%. The luminescence intensity of rhodamine B would initially be quenched when rhodamine B is associated with magnetosomes and would increase with the dissociation of rhodamine B from magnetosomes under the effect of a temperature increase.

[3] = Luminescence after irradiation with a faxitron irradiator (irradiation probe); conditions: 0 to 1350 Gy, 125 μM rhodamine B, pH 7, 25° C., excited at 550 nm, measured at 578 nm
Description: Three suspensions are maintained at pH 7 and at a temperature of 25° C., containing either 400 μg/mL in iron oxide of MCR400, 125 μM of rhodamine B, or 400 μg/mL in iron oxide of MC mixed with 125 μM of rhodamine B. These suspensions are irradiated with a faxitron irradiator dosimeter (160 kV, 6.3 mA without filter, 67.5 Gy/min). The irradiation doses are between 0 and 1350 Gy. […] In contrast, when the MCR400 suspension is irradiated, the luminescence of the supernate of this suspension, excited at 550 nm and measured at 576 nm, increases sharply from 250 a.u. in the absence of irradiation to 600-950 a.u. in the presence of an irradiation larger than 250 Gy.

[4] = Fluorescence lifetime by the frequency method; conditions: excitation 445 nm, MCR400 5 mg/mL in iron oxide, rhodamine B 5 μM
Description: Life time experiments were carried out using the frequency method. The set-up uses a modulated laser diode as excitation source, a confocal fluorescence spectroscope, a control unit for intensifying images and a camera, frequency generators and a spectrograph controller. The modulation frequency has been varied between 30 and 180 MHz. The excitation wavelength is 445 nm. The laser light is modulated by a radio frequency signal. An interference filter suppresses parasitic fluorescence from the laser diode and a high pass filter is placed in the detection path to decrease scattering. A volume of 1 mL of a suspension of MCR400 at 5 mg/mL in iron oxide and rhodamine B at a concentration of 5 μM was placed in a dry heating bath for 5 minutes to heat the suspensions at 25° C. and at 45° C. 10 μl of a suspension of MCR400 at 5 mg/ml in iron oxide and rhodamine B at a concentration of 5 μM were deposited on a slide and then placed in front of an objective ×40 to measure the fluorescence lifetime of each suspension.

[5] = Luminescence as a function of pH (pH 2 to 12), suspension, supernate and rhodamine B alone; conditions: 125 μM, excited at 550 nm
Description: A suspension of MCR400 at 400 μg/mL in iron oxide and a 125 μM solution of rhodamine B were mixed with solutions of hydrochloric acid or with solutions of sodium hydroxide at concentrations ranging from 0.1 to 12 M to adjust the pH to values between 2 and 12. The samples containing the MCR400 suspensions thus treated are then placed against a magnet of 0.6 T for 12 hours at 4° C. and the supernate of the treated MCR400 suspensions is removed. The maximum luminescence intensity of the supernate of the MCR400 suspension, excited at 550 nm, decreases from 140 a.u. at pH 2 down to 20 a.u. at pH 12. On the other hand, the maximum luminescence intensity of rhodamine B alone, excited at 550 nm, increases from 440 a.u. up to 580 a.u. […] In contrast, for 2<pH<4, the emission wavelengths of rhodamine B alone, MCR400 and the supernate of MCR400, are similar, lying between 580 nm and 584 nm. These behaviors could be explained by the association of rhodamine B with magnetosomes for pH>4 and the dissociation of rhodamine B from magnetosomes for pH<4.

Question: What does the source list for CCCCCCCCCCCCCCCCCCN1C(=CC=CC2=[N+](CCCCCCCCCCCCCCCCCC)c3ccccc3C2(C)C)C(C)(C)c2ccccc21.[O-][Cl+3]([O-])([O-])[O-] [DiI, 1,1′-Dioctadecyl-3,3,3′,3′-tetramethyl-indocarbocyanine perchlorate]?
Answer: maximum luminescence intensity as a function of heating temperature ([1]; heated 30 minutes, DiI 5.4 μM pH 7, BNF-DiI 80 μg/mL in iron oxide): increases between 20 and 60 °C and then decreases between 60 and 100 °C; luminescence intensity of the substance alone on heating ([1]; heated between 20 and 90° C. for 0 to 30 minutes): does not significantly decrease

Question: With CCN(CC)c1ccc2c(-c3ccccc3C(=O)O)c3ccc(=[N+](CC)CC)cc-3oc2c1.[Cl-] [rhodamine B] as the compound, how does the “decrease of maximum luminescence intensity” value [2] read?
Answer: Its value is 73%.

Question: And the “luminescence on irradiation (solution, or supernate of the mixture)” value [3]?
Answer: Its value is “do not vary or decrease”.

Question: What about the fluorescence lifetime ([4]; 25° C.) of the same compound?
Answer: Its fluorescence lifetime is 1.6 ns.

Question: And the fluorescence lifetime ([4]; 45° C.)?
Answer: The fluorescence lifetime was 1.3 ns.

Question: What about the “maximum luminescence intensity of the solution” value ([5]; end of the pH increase (pH range 2 to 12)) of the same compound?
Answer: The value was 580 a.u.

Question: And the “maximum luminescence intensity of the solution” value ([5]; start of the pH increase (pH range 2 to 12))?
Answer: Its value is 440 a.u.
